Legend:
Assay type in all cases: cell-based, human
[1] = system: HIAP1 mRNA; assay: HIAP1 mRNA in SF295 cells, basal conditions (TaqMan); design: decrease of HIAP1 mRNA compared to mock or scrambled survivin control: concentration or dose not given beside the values; details: for HIAP1 mRNA levels (in words): SF295 cells (FIG. 21)
In short: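 SF295 glioblastoma cells transfected with antisense oligonucleotides via lipofectin under basal conditions; RNA isolated 6 h post-transfection. HIAP1 mRNA quantified by TaqMan RT-PCR using the comparative Ct method, normalized to GAPDH and expressed relative to scrambled survivin oligonucleotide set as 1.0.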

[2] = system: HIAP1 mRNA; assay: HIAP1 mRNA in SF295 cells under cycloheximide induction (TaqMan)
Method: (§1) The effect of HIAP1 antisense nucleobase oligomers on HIAP1 protein and mRNA expression was also examined in cells induced to express HIAP1. SF295 cells were transfected with oligonucleotides, or were mock transfected. The transfected cells were then treated with 10 μg/ml cycloheximide for 24 hours to induce 70 kDa HIAP1 mRNA and protein. Protein levels were measured by western blot analysis with an anti-HIAP1 polyclonal antibody, and normalized against actin protein in a re-probing of the same blots. The densitometric scan results were plotted against the mock results (set at 100%) in FIG. 22B. […] The transfection process itself (e.g., mock or scrambled survivin) induces HIAP1 protein compared to the untreated sample as shown on the western immunoblot.
Controls for this experiment were three oligonucleotides for APO 2: one scrambled sequence (same base composition but random order, 5′-AAGGGCGGCGGAGTGAGAC-3′; SEQ ID NO: 297), one reverse polarity (same base composition, same sequential order but in the opposite direction, 5′-AGAGGACGGAGTCGGAGGC-3′; SEQ ID NO: 298), and one mismatch sequence (containing four base mismatches out of 19 bases, 5′-CGGAGCGTGAGGATGGAGA-3′; SEQ ID NO: 299).

[3] = system: HIAP1 protein; assay: HIAP1 protein in cycloheximide-induced SF295 cells (western blot)
From the text: HIAP1 was detected on a western immunoblot using an affinity-purified anti-rat HIAP1 rabbit polyclonal antibody as a primary antibody and was detected by ECL (Amersham) on X-ray film with a secondary horseradish-peroxidase-conjugated anti-rabbit Ig antibody and a chemiluminescent substrate. The anti-HIAP1 polyclonal antibody is raised against a GST-fusion of the rat HIAP1. This antibody cross-reacts with both human and murine HIAP1 and HIAP2.
as §1

[4] = system: survivin protein; assay: Survivin protein after APO 2 treatment; details: after oligo treatment
[5] = system: SF295 cells; assay: Cytotoxicity of HIAP1 oligonucleotides measured by total protein; details: FIG. 23
From the text: FIG. 23 is a graph showing the effects of HIAP1 oligonucleotides on cytotoxicity, as measured by total protein.

Sequence | HIAP1 mRNA levels (in words) [1] | decrease of HIAP1 mRNA compared to mock or scrambled survivin control ([1]; SF295 cells, six hours after transfection) | effect on HIAP1 mRNA (and protein) under CHX induction (in words) [2] | decrease in HIAP1 mRNA compared to scrambled survivin control ([2]; cycloheximide induction conditions, 6 hours after transfection) | activity in the HIAP1 protein and mRNA assays [3] | loss of survivin protein (specificity) [4] | toxicity seen as general decrease in total protein [5]
CGGAGGCTGAGGCAGGAGA (CGGAGGCNGAGGCAGGAGA; chemistry not given here) [APO 2] | did not cause a stress-induced increase in HIAP1 mRNA | ~50% | greatest block of CHX-induced upregulation of HIAP1 mRNA and protein | 50% | high activity, or had significant activity in both the protein and mRNA assays | did not see any loss of survivin protein | 
TCTCACAGACGTTGGGCTT (chemistry not given here) [APO 6] | stress-induced increase in HIAP1 mRNA |  |  |  |  |  | evidence of toxicity
